According to ChEMBL document CHEMBL4507327 (2021):
Blank lines part the entries; values can stand above or below the compound they belong to.

Tests used:
[1] = biological target: Bone morphogenetic protein receptor type-2 (Homo sapiens, UniProt Q13873); assay: BMPR2(BMR2LGN1) Takeda global kinase panel
[2] = biological target: Insulin receptor-related protein (Homo sapiens, UniProt P14616); assay: IRR(INSSLGF1) Takeda global kinase panel
[3] = biological target: Epidermal growth factor receptor (Homo sapiens, UniProt P00533); assay: EGFR(EGFRMGB1) Takeda global kinase panel
[4] = biological target: Serine/threonine-protein kinase DCLK3 (Homo sapiens, UniProt Q9C098); assay: DCAMKL3(DCL3LGP1) Takeda global kinase panel
[5] = biological target: Neuropeptide Y receptor type 2 (Homo sapiens) (UniProt P49146); assay: Inhibition of Neuropeptide Y Y2 at 10 µM in the Eurofins-Panlabs radioligand binding assay (Eurofins_assay_257110); conditions: Compound concentration 10.0 uM
[6] = biological target: Activin receptor type-2A (Homo sapiens, UniProt P27037); assay: ACtR2(AC2ALGE1) Takeda global kinase panel
[7] = biological target: Protein kinase C zeta type (Homo sapiens, UniProt Q05513); assay: PKCzeta(PRKZLGP1) Takeda global kinase panel
[8] = biological target: Myosin light chain kinase, smooth muscle (Homo sapiens, UniProt Q15746); assay: smMLCK(MYL1LGF1) Takeda global kinase panel
[9] = biological target: Ribosomal protein S6 kinase alpha-4 (Homo sapiens, UniProt O75676); assay: MSK2(R6A4LGRJ) Takeda global kinase panel
[10] = biological target: Phosphatidylinositol 4,5-bisphosphate 3-kinase catalytic subunit alpha isoform (Homo sapiens, UniProt P42336); assay: PI3KCA(PI3ACGR1) Takeda global kinase panel
[11] = biological target: Serine/threonine-protein kinase PAK 5 (Homo sapiens, UniProt Q9P286); assay: PAK5(PAK7LGF1) Takeda global kinase panel
[12] = organism: Mus musculus; assay: Inhibition of Phorbol Ester at 10 µM in the Eurofins-Panlabs radioligand binding assay (Eurofins_assay_264500); design: ligand concentration 3 nM; conditions: Compound concentration 10.0 uM
[13] = biological target: Mast/stem cell growth factor receptor Kit (Homo sapiens, UniProt P10721); assay: Kit(KIT1MGC1) Takeda global kinase panel
[14] = biological target: Dual specificity tyrosine-phosphorylation-regulated kinase 1B (Homo sapiens, UniProt Q9Y463); assay: DYRK1B(DY1BLHY1) Takeda global kinase panel
[15] = biological target: Serine/threonine-protein kinase Nek5 (Homo sapiens, UniProt Q6P3R8); assay: Nek5(NEK5LGRD) Takeda global kinase panel
[16] = biological target: Serine/threonine-protein kinase PLK3 (Homo sapiens, UniProt Q9H4B4); assay: PLK3(PLK3PHY1) Takeda global kinase panel
[17] = biological target: Mixed lineage kinase domain-like protein (Homo sapiens, UniProt Q8NB16); assay: MLKL(MLKLPHY1) Takeda global kinase panel
[18] = biological target: Tyrosine-protein kinase Mer (Homo sapiens, UniProt Q12866); assay: Mer(MERTLGF1) Takeda global kinase panel
[19] = biological target: Ephrin type-A receptor 7 (Homo sapiens, UniProt Q15375); assay: EphA7(EPA7LGF1) Takeda global kinase panel
[20] = biological target: Tyrosine-protein kinase CSK (Homo sapiens, UniProt P41240); assay: CSK(CSK1LGF1) Takeda global kinase panel
[21] = biological target: Cyclin-dependent kinase 11A (Homo sapiens, UniProt Q9UQ88); assay: CDK11A(C11ALGS1) Takeda global kinase panel
[22] = biological target: Mitogen-activated protein kinase kinase kinase 5 (Homo sapiens, UniProt Q99683); assay: ASK [MAP3K5(M3K5LGA1)] Takeda global kinase panel
[23] = biological target: Serine/threonine-protein kinase tousled-like 1 (Homo sapiens, UniProt Q9UKI8); assay: TLK1(TLK1LGP1) Takeda global kinase panel
[24] = biological target: Insulin receptor (Homo sapiens, UniProt P06213); assay: InSR(INSRLGY1) Takeda global kinase panel
Sequence of Insulin receptor (P06213 28-758 limits assumed): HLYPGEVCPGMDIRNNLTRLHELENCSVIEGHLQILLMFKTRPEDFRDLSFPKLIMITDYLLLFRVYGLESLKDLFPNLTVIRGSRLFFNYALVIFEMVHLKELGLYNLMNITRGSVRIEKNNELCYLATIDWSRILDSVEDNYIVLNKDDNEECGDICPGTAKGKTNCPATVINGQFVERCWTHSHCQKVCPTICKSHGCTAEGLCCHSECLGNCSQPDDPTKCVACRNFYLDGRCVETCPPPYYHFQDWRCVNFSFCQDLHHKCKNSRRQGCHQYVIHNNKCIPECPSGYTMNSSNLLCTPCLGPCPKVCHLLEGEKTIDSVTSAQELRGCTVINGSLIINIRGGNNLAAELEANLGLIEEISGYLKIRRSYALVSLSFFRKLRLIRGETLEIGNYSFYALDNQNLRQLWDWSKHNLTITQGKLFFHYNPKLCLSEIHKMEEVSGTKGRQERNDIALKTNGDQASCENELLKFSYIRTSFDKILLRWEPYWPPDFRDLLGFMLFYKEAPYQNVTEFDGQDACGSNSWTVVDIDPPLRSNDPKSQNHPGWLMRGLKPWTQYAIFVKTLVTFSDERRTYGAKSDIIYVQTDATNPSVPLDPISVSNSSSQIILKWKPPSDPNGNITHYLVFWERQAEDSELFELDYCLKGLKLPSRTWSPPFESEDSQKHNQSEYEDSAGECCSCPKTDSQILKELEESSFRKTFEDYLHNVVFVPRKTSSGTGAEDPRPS
Sequence of Insulin receptor (P06213 763-1382 limits assumed): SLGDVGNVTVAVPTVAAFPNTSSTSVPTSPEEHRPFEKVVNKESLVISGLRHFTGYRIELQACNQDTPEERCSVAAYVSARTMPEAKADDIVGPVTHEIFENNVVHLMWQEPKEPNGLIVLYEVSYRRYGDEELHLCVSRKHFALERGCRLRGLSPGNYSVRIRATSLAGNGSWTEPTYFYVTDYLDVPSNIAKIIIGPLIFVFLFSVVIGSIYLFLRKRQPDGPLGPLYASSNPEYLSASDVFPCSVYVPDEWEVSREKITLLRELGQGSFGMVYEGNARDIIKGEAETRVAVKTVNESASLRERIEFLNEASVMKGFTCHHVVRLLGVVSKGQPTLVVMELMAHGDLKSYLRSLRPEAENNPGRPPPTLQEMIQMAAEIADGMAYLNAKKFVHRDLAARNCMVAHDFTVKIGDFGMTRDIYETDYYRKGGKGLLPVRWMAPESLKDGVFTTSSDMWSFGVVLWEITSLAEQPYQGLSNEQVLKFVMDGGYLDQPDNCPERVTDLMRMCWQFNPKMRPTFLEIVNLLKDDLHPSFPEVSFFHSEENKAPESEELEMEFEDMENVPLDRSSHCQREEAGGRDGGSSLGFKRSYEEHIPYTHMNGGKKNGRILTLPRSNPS

[25] = biological target: Hormonally up-regulated neu tumor-associated kinase (Homo sapiens, UniProt P57058); assay: HUNK(HUNKLGRN) Takeda global kinase panel
[26] = biological target: Death-associated protein kinase 1 (Homo sapiens, UniProt P53355); assay: DAPK1(DAP1LGF1) Takeda global kinase panel
Sequence of Death-associated protein kinase 1 (P53355 whole entry): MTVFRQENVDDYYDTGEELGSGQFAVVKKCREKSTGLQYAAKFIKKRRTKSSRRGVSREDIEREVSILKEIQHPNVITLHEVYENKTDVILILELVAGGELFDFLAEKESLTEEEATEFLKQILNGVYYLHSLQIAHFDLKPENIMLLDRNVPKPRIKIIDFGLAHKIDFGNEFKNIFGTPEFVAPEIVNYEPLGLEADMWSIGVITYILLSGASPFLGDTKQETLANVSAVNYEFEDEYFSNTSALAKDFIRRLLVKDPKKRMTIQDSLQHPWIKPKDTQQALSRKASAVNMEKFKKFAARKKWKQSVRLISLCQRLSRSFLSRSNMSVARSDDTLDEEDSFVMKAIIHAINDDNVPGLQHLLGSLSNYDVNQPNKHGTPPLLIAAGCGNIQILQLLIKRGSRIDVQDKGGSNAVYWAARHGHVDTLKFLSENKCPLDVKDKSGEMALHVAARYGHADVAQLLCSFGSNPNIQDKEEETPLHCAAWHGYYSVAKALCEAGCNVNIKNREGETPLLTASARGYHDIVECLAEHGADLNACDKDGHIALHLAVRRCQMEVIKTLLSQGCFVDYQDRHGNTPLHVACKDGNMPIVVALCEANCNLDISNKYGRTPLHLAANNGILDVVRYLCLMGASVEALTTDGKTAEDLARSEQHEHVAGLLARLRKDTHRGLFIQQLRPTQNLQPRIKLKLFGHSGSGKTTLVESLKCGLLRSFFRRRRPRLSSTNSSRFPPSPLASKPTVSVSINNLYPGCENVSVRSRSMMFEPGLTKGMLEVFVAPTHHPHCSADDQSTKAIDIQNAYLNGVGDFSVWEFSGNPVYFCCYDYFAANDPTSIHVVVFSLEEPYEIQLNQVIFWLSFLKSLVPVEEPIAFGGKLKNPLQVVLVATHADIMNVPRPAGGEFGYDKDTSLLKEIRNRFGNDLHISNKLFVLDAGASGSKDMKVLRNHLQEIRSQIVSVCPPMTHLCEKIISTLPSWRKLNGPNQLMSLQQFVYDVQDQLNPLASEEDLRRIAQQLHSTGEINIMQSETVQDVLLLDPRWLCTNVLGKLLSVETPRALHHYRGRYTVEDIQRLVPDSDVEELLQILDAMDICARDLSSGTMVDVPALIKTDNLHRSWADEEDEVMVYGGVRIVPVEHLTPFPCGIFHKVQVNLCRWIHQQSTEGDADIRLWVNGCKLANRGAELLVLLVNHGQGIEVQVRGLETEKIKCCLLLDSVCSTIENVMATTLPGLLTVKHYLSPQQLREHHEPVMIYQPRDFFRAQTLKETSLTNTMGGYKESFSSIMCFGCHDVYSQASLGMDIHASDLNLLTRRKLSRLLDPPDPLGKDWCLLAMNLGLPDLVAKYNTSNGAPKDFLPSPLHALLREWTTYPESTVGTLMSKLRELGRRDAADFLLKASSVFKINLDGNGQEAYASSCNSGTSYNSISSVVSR

[27] = biological target: Glycogen synthase kinase-3 beta (Homo sapiens, UniProt P49841); assay: GSK3beta(GS3BLGM1) Takeda global kinase panel
[28] = biological target: Purinergic P2Y (Rattus norvegicus) (UniProt O35811+Q9EPX4+P49651+Q63371+P41232+O35881+Q6GUG4); assay: Inhibition of Purinergic P2Y at compound concentration of 10.0 uM in the Eurofins-Panlabs radioligand binding assay (Eurofins_assay_268820); type: protein assay; design: ligand concentration 0.1 nM; conditions: Compound concentration 10.0 uM
[29] = biological target: Cyclin-dependent kinase 6 (Homo sapiens, UniProt Q00534); assay: CDK6(CDK6CGS1) Takeda global kinase panel
[30] = biological target: Cyclin-dependent kinase 5 (Homo sapiens, UniProt Q00535); assay: CDK5(CDK5CGS1) Takeda global kinase panel
[31] = biological target: Cysteinyl leukotriene receptor 1 (Homo sapiens) (UniProt Q9Y271); assay: Inhibition of Leukotriene, Cysteinyl CysLT1 at 10 µM in the Eurofins-Panlabs radioligand binding assay (Eurofins_assay_250460); design: ligand concentration 0.3 nM, non-specific ligand with concentration 0.3 µM Leukotriene D4, incubation time 30 min, incubation temperature 25 °C; conditions: Compound concentration 10.0 uM
[32] = biological target: Serine/threonine-protein kinase pim-3 (Homo sapiens, UniProt Q86V86); assay: Pim3(PIM3LGP1) Takeda global kinase panel
[33] = biological target: Rho-associated protein kinase 2 (Homo sapiens, UniProt O75116); assay: ROCK2(ROC2LGG1) Takeda global kinase panel
[34] = biological target: Activated CDC42 kinase 1 (Homo sapiens, UniProt Q07912); assay: Ack(TNK2LGF1) Takeda global kinase panel
[35] = biological target: Homeodomain-interacting protein kinase 2 (Homo sapiens, UniProt Q9H2X6); assay: HIPK2(HIP2LGY1) Takeda global kinase panel
[36] = biological target: Serine/threonine-protein kinase Nek3 (Homo sapiens, UniProt P51956); assay: Nek3(NEK3LGRI) Takeda global kinase panel
[37] = biological target: Mitogen-activated protein kinase kinase kinase 13 (Homo sapiens, UniProt O43283); assay: LZK(M313LGRJ) Takeda global kinase panel
[38] = biological target: Serine/threonine-protein kinase pim-2 (Homo sapiens, UniProt Q9P1W9); assay: Pim2(PIM2LHY1) Takeda global kinase panel
[39] = biological target: Neuropeptide Y receptor type 1 (Homo sapiens) (UniProt P25929); assay: Inhibition of Neuropeptide Y Y1 at 10 µM in the Eurofins-Panlabs radioligand binding assay (Eurofins_assay_257010); conditions: Compound concentration 10.0 uM
[40] = biological target: Interleukin-1 receptor type 1 (Homo sapiens) (UniProt P14778); assay: Interleukin IL-1 R1 Eurofins-Panlabs radioligand binding assay; design: ligand concentration 0.1 nM; conditions: Compound concentration 10.0 uM
[41] = biological target: Receptor tyrosine-protein kinase erbB-4 (Homo sapiens, UniProt Q15303); assay: HER4(ERB4CGF1) Takeda global kinase panel
[42] = biological target: Mitogen-activated protein kinase 11 (Homo sapiens, UniProt Q15759); assay: p38beta(MP11LGI1) Takeda global kinase panel
[43] = biological target: Phosphorylase b kinase gamma catalytic chain, skeletal muscle/heart isoform (Homo sapiens, UniProt Q16816); assay: PhKgamma1(PHG1LHY1) Takeda global kinase panel
[44] = biological target: Mitogen-activated protein kinase kinase kinase 20 (Homo sapiens, UniProt Q9NYL2); assay: ZAK(ZAK1LGY1) Takeda global kinase panel

Sequence of Insulin receptor-related protein (P14616 27-742 limits assumed): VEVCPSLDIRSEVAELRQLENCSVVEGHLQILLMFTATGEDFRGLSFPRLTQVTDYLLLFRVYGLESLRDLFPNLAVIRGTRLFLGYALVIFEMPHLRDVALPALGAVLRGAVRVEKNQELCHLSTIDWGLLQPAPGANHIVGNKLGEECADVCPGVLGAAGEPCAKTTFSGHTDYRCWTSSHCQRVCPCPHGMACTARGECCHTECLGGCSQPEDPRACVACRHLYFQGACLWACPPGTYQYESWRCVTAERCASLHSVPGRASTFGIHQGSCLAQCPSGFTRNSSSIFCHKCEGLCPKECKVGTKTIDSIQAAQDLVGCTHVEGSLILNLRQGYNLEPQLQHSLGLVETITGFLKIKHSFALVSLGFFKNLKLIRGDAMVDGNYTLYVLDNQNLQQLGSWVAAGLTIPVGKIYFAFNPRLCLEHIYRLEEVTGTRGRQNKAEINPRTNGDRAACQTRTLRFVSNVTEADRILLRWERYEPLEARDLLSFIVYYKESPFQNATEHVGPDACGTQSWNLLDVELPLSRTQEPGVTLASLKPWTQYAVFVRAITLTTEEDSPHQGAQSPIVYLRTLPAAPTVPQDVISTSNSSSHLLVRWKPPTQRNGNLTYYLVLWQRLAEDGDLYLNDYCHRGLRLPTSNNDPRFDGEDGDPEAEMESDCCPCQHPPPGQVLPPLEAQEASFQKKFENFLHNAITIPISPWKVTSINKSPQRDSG
Sequence of Insulin receptor-related protein (P14616 747-1297 limits assumed): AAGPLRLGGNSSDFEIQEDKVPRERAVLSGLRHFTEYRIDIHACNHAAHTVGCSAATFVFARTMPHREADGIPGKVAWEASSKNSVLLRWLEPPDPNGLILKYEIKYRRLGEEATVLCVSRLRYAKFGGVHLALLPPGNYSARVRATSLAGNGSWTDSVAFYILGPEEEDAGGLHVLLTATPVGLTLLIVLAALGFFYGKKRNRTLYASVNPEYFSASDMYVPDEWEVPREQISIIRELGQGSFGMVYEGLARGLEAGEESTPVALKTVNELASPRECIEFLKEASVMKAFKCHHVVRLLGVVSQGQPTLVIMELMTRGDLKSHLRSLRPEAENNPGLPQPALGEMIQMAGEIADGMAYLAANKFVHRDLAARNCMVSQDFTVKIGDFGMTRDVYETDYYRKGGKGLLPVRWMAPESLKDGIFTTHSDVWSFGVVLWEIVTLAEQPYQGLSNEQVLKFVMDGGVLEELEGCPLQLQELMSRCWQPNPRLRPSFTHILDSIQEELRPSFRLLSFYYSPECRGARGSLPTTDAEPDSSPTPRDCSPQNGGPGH
Sequence of Bone morphogenetic protein receptor type-2 (Q13873 whole entry): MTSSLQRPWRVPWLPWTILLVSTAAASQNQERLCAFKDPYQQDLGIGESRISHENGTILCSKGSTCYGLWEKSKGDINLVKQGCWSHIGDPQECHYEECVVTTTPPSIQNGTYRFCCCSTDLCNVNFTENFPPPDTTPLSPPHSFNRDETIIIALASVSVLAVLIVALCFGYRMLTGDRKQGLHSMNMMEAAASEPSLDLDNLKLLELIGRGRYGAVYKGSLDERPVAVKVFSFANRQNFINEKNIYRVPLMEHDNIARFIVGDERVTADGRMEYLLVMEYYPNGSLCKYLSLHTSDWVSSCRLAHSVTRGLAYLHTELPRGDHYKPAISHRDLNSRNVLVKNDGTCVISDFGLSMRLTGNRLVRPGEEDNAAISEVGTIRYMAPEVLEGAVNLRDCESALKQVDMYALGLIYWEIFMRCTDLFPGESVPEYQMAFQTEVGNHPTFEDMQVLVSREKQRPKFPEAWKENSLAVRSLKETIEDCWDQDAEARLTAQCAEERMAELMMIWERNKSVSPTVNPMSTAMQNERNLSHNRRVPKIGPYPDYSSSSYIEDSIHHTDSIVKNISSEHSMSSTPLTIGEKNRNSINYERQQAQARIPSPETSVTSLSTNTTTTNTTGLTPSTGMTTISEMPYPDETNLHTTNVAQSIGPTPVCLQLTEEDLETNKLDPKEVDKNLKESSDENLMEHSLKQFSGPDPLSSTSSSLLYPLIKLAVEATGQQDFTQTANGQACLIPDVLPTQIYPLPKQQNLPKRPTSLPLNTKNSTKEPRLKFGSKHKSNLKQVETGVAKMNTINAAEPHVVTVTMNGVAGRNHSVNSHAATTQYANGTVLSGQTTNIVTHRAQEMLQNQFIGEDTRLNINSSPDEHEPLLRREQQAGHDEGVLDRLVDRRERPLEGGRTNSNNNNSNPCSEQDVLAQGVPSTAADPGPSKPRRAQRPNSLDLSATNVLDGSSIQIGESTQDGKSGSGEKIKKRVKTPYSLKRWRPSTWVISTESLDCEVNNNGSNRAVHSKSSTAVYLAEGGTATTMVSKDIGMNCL

SMILES: CN1C(=O)[C@@H](N2CCc3cn(Cc4ccccc4)nc3C2=O)COc2ccccc21 [TP-030-1]
IC50 [1]: 1000 nM
IC50 [2]: 1000 nM
IC50 [3]: 1000 nM
IC50 [4]: 1000 nM
inhibition [5]: 2%
IC50 [6]: 1000 nM
IC50 [7]: 1000 nM
IC50 [8]: 1000 nM
IC50 [9]: 1000 nM
IC50 [10]: 1000 nM
IC50 [11]: 1000 nM
inhibition [12]: -3%
IC50 [13]: 1000 nM
IC50 [14]: 1000 nM
IC50 [15]: 1000 nM
IC50 [16]: 1000 nM
IC50 [17]: 1000 nM
IC50 [18]: 1000 nM
IC50 [19]: 1000 nM
IC50 [20]: 1000 nM
IC50 [21]: 1000 nM
IC50 [22]: 1000 nM
IC50 [23]: 1000 nM
IC50 [24]: 1000 nM
IC50 [25]: 1000 nM
IC50 [26]: 1000 nM
IC50 [27]: 1000 nM
inhibition [28]: -5%
IC50 [29]: 1000 nM
IC50 [30]: 1000 nM
inhibition [31]: 0%
IC50 [32]: 1000 nM
IC50 [33]: 1000 nM
IC50 [34]: 1000 nM
IC50 [35]: 1000 nM
IC50 [36]: 1000 nM
IC50 [37]: 1000 nM
IC50 [38]: 1000 nM
inhibition [39]: 4%
inhibition [40]: -7%
IC50 [41]: 1000 nM
IC50 [42]: 1000 nM
IC50 [43]: 1000 nM
IC50 [44]: 1000 nM

IC50 [1]: 1000 nM
IC50 [2]: 1000 nM
IC50 [3]: 1000 nM
IC50 [4]: 1000 nM
inhibition [5]: 1%
IC50 [6]: 1000 nM
IC50 [7]: 1000 nM
IC50 [8]: 1000 nM
IC50 [9]: 1000 nM
IC50 [10]: 1000 nM
IC50 [11]: 1000 nM
inhibition [12]: 7%
IC50 [13]: 1000 nM
IC50 [14]: 1000 nM
IC50 [15]: 1000 nM
IC50 [16]: 1000 nM
IC50 [17]: 1000 nM
IC50 [18]: 1000 nM
IC50 [19]: 1000 nM
IC50 [20]: 1000 nM
IC50 [21]: 1000 nM
IC50 [22]: 1000 nM
IC50 [23]: 1000 nM
IC50 [24]: 1000 nM
IC50 [25]: 1000 nM
IC50 [27]: 1000 nM
inhibition [28]: 8%
IC50 [29]: 1000 nM
IC50 [30]: 1000 nM
inhibition [31]: 0%
IC50 [32]: 1000 nM
IC50 [33]: 1000 nM
IC50 [34]: 1000 nM
IC50 [35]: 1000 nM
IC50 [36]: 1000 nM
IC50 [37]: 1000 nM
IC50 [38]: 1000 nM
inhibition [39]: -3%
inhibition [40]: -9%
IC50 [41]: 1000 nM
IC50 [42]: 1000 nM
IC50 [43]: 1000 nM
IC50 [44]: 1000 nM
SMILES: CN1C(=O)[C@@H](N2CCc3cn(CC4CCS(=O)(=O)CC4)nc3C2=O)COc2ccccc21 [TP-030n]
IC50 [26]: 1000 nM
